Measurements published in patent US20120014926A1, “Activation of Precursor Cells for Cell Therapy” (priority 2009, published 2012).

What was measured:
[1] = tested on: BMC; test: BMC migration towards SDF-1, modified Boyden chamber assay; format: cell-based, mouse; conditions: inhibitor added to upper chamber along with treated BMC; p<0.05
Protocol: BMC migration towards SDF-1 was determined using a modified Boyden chamber assay. BMC were pre-incubated with either PBS or the invented solution for 4 hours at 37 deg.C. and transferred to the upper chamber of inserts in a 24-well plate containing DMEM and 100 ng/ml SDF-1. Migrated cells were counted after 6 hrs incubation at 37° C. Inhibitors AMD3100, LY294002, L-NMMA, and anti-CXCR4 antibody were added to the upper chamber along with BMC.

[2] = tested on: mice after surgical implementation of hindlimb ischemia; test: Homing of injected GFP BMC to ischemic hindlimb muscle; format: in vivo, mouse; conditions: SDF-1 protein 100 ng injected into ischemic hindlimb muscle; treated and untreated cells
Protocol: SDF1 protein was also injected into the ischemic hindlimb muscle to enhance BMC homing. SDF-1 protein (100 ng) was injected into the ischemic hindlimb muscle of WT BL6 mice twice at consecutive days after the surgery. The hindlimb muscles were recovered 7 days after the cell injection, stained with DAPI for nucleus (light white), and examined for GFP cells (bright white, arrow pointed) incorporation under fluorescent microscopy. (A) untreated BMC, B) Treated BMC, C) Untreated BMC+SDF-1, D) Treated BMC+SDF-1. E) The incorporated GFP cells were quantified as cells per high power field (HPF). *P<0.05, and **P<0.01 versus all other groups (n=6).

Row | Molecule | mobility of the treated BMC on addition of inhibitor [1] | effect of exogenous SDF-1 on homing of injected BMC [2]
1 | c1cc(CN2CCCNCCNCCCNCC2)ccc1CN1CCCNCCNCCCNCC1 [AMD3100] | significantly reduced | –
2 | CNC(=N)NCCC[C@H](N)C(=O)O [L-NNMA] | significantly reduced | –
3 | SDF-1: stromal cell derived factor-1, chemotactic cytokine, protein injected into ischemic hindlimb muscle | – | homed more efficiently
